The experiment concerns the target T1, MMP-9 (92 kDa, gelatinase B; type IV collagenase) (Homo sapiens, UniProt P14780).
T1 construct: endogenous in cells; enzyme purified from the conditioned medium
Description: Assay of type IV collagenase inhibitors: activated MMP-9 with type IV collagenase activity kit substrate, fluorescent intensity. The experiment is classed as biochemical. As to conditions: concentration at which percent inhibition reaches 50%. On the procedure:
(1) Isolation and Purification of MMP-9 (92 kDa, Gelatinase B)
Type IV collagenase (MMP-9) was purified according to the methods descrived in the following literature.
Subsequently, activated MMP-9 was obtained by treating the pro-MMP-9 with trypsin.
(2) Assay Methods of Type IV Collagenase Inhibitors
Collagenase assay was performed using the activated MMP-9 described above and the substrate supplied in the type IV collagenase activity kit (YAGAI, inc.), according to the manufacturer's protocol. The following 4 assays are performed per compound (inhibitor).
(A) substrate (type IV collagenase), enzyme (MMP-9), inhibitor
(B) substrate (type IV collagenase), inhibitor
(C) substrate (type IV collagenase), enzyme (MMP-9)
(D) substrate (type IV collagenase)
According to the manufacturer's protocol, fluorescent intensity was measured and percent inhibition was determined by the following equation.
Inhibition (%)={1−(A−B)/(C−D)}×100

[1] abbreviates: activated MMP-9, type IV collagenase activity kit substrate, fluorescent intensity.
Where [2] appears, read: inhibition of type IV collagenase (MMP-9).

T1 sequence (P14780 107-707 limits assumed): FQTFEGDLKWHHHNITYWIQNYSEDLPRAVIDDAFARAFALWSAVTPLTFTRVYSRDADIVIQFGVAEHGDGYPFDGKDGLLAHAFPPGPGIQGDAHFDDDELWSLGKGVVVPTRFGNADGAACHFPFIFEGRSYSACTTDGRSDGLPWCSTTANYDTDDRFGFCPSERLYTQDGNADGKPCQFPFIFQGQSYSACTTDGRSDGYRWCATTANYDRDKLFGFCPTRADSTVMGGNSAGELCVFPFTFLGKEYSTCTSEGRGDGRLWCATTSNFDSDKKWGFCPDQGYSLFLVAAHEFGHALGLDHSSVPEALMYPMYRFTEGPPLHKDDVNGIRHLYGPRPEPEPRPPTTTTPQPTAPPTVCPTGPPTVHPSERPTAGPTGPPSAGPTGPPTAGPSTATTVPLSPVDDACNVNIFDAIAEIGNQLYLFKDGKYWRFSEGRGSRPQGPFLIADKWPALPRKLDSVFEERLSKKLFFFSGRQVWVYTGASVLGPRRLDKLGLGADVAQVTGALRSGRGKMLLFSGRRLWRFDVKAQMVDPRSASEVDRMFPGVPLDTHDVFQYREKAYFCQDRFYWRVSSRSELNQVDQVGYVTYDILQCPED

By IC50 is commonly meant the concentration needed to halve the response being measured. A low value points to greater potency. For `O=C(O)C(Cc1c[nH]c2ccc(F)cc12)NS(=O)(=O)c1ccc(-c2ccccc2)cc1` (racemic) [Example 1a-1-18], the IC50 under setting [1] worked out at 500 nM.
For `Cc1ccc2[nH]cc(CC(NS(=O)(=O)c3ccc(Oc4ccccc4)cc3)C(=O)O)c2c1` (racemic) [Example 1a-1-65], under setting [1], inhibition was half-maximal at 291 nM (IC50).
Under setting [1], `O=C(NO)C(Cc1cscn1)NS(=O)(=O)c1ccc(-c2ccccc2)cc1` (racemic) [Example 1b-1-2] gave an IC50 of 40 nM.
The same measure, in the same setting: as for `Cc1ccc2[nH]cc(CC(NS(=O)(=O)c3ccc(-c4ccccc4)cc3)C(=O)NO)c2c1` (racemic) [Example 1b-1-17], the figure is 20.3 nM.
As for `COc1ccc(-c2ccc(S(=O)(=O)N[C@H](Cc3ccccc3)C(=O)O)s2)cc1` [1a-3-10], the IC50 under setting [2] turned out to be 8.3 nM.
In turn, `O=C(O)[C@@H](Cc1ccccc1)NS(=O)(=O)c1ccc(-c2ccccc2)cc1` [Example 1a-1-1] displayed an IC50 under setting [1] of 240 nM.
The compound `O=C(O)[C@@H](Cc1c[nH]c2ccccc12)NS(=O)(=O)c1ccc(-c2ccc(F)cc2)cc1` [Example 1a-1-41] gave an IC50 under setting [1] of 312 nM.
On the same count and under the same terms, as for `CC(C)[C@@H](NS(=O)(=O)c1ccc(-c2ccccc2)cc1)C(=O)O` [Example 1a-1-43], the figure is 625 nM; as for `CC(C)[C@@H](NS(=O)(=O)c1ccc(-c2ccc(C(C)(C)C)cc2)cc1)C(=O)O` [Example 1a-1-44], 1910 nM.
Under setting [1], `CC(C)[C@@H](NS(=O)(=O)c1ccc(-c2ccc(-c3ccccc3)cc2)cc1)C(=O)O` [Example 1a-1-45] showed an IC50 of 40 nM.
In turn, `CC(C)[C@@H](NS(=O)(=O)c1ccc(-c2ccc(C(F)(F)F)cc2)cc1)C(=O)O` [Example 1a-1-46] had an IC50 under setting [1] of 1120 nM.
The same measure, in the same setting: the figure for `CC(C)[C@@H](NS(=O)(=O)c1ccc(-c2ccc(F)cc2)cc1)C(=O)O` [Example 1a-1-48] is 1150 nM.
Still for that read-out and setting: as for `COc1ccc(-c2ccc(S(=O)(=O)N[C@H](Cc3ccccc3)C(=O)O)cc2)cc1` [Example 1a-1-50], the figure is 553 nM; as for `CSc1ccc(-c2ccc(S(=O)(=O)N[C@H](Cc3ccccc3)C(=O)O)cc2)cc1` [Example 1a-1-54], 75 nM; as for `CSc1ccc(-c2ccc(S(=O)(=O)N[C@@H](C(=O)O)C(C)C)cc2)cc1` [Example 1a-1-55], 39.8 nM.
On the same count and under the same terms, as for `O=C(O)[C@@H](Cc1ccccc1)NS(=O)(=O)c1ccc(Oc2ccccc2)cc1` [Example 1a-1-60], the figure is 1310 nM; as for `O=C(O)[C@@H](Cc1c[nH]c2ccccc12)NS(=O)(=O)c1ccc(Oc2ccccc2)cc1` [Example 1a-1-61], 247 nM.
For the compound `O=C(O)[C@@H](Cc1c[nH]c2ccccc12)NS(=O)(=O)c1ccc(-c2nc3ccccc3s2)cc1` [Example 1a-1-83], the IC50 under setting [2] was found to be 1770 nM.
Same read-out and setting: the figure for `CN(C)c1ccc(N=Nc2ccc(S(=O)(=O)N[C@H](Cc3ccccc3)C(=O)O)cc2)cc1` [Example 1a-1-86] is 350 nM; for `O=C(O)[C@@H](Cc1c[nH]c2ccccc12)NS(=O)(=O)c1ccc(C#Cc2ccccc2)cc1` [Example 1a-2-2] it is 237 nM.
`O=C(O)[C@@H](Cc1c[nH]c2ccccc12)NS(=O)(=O)c1ccc(C#Cc2ccc([N+](=O)[O-])cc2)cc1` [Example 1a-2-7] registered an IC50 under setting [2] of 69.9 nM.
`Nc1ccc(C#Cc2ccc(S(=O)(=O)N[C@H](Cc3c[nH]c4ccccc34)C(=O)O)cc2)cc1` [Example 1a-2-9] showed an IC50 under setting [2] of 57.7 nM.
Still for that read-out and setting: the figure for `C#Cc1ccc(C#Cc2ccc(S(=O)(=O)N[C@H](Cc3c[nH]c4ccccc34)C(=O)O)cc2)cc1` [Example 1a-2-11] is 47.5 nM; for `CC(C)[C@@H](NS(=O)(=O)c1ccc(C#Cc2ccc(F)cc2)cc1)C(=O)O` [Example 1a-2-19] it is 203 nM; for `COc1ccc(C#Cc2ccc(S(=O)(=O)N[C@@H](C(=O)O)C(C)(C)C)cc2)cc1` [Example 1a-2-20] it is 3410 nM.
Same read-out and setting: as for `CCC(C)[C@@H](NS(=O)(=O)c1ccc(C#Cc2ccc(OC)cc2)cc1)C(=O)O` (stereo partly drawn) [Example 1a-2-21], the figure is 3740 nM.
On the same count and under the same terms, the figure for `Cc1ccc(C#Cc2ccc(S(=O)(=O)N[C@H](Cc3ccccc3)C(=O)O)s2)cc1` [Example 1a-2-37] is 92.2 nM.
